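Method: 48-hour compound exposure of cells in 96-well plates, five concentrations, linear interpolation of endpoints. GI50 marks 50% less growth.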 Active and inactive are the calls of the source. Rule as the data show it: active = GI50 up to about 1.1 µM and inactive = higher.
What was measured:
Experiment in all cases: NCI tumour cell line growth inhibition, 48 h
A549 = system: A549
KM12 = system: KM12
NCI-H23 = system: NCI-H23
K562 = system: K562
NCI-H226 = system: NCI-H226
NCI-H460 = system: NCI-H460
MDA-MB-435 = system: MDA-MB-435
LOX IMVI = system: LOX IMVI
HCT-15 = system: HCT-15
T47D = system: T47D
NCI-H522 = system: NCI-H522
PC-3 = system: PC-3
CAKI-1 = system: CAKI-1
MDA-N = system: MDA-N
SK-OV-3 = system: SK-OV-3
RXF 393 = system: RXF 393
HOP-62 = system: HOP-62
MOLT-4 = system: MOLT-4
UACC-62 = system: UACC-62
OVCAR-4 = system: OVCAR-4
HT-29 = system: HT-29
ACHN = system: ACHN
HCT-116 = system: HCT-116
COLO 205 = system: COLO 205
OVCAR-8 = system: OVCAR-8
SW-620 = system: SW-620
SF-268 = system: SF-268
HCC 2998 = system: HCC 2998
MDA-MB-231 = system: MDA-MB-231
IGROV-1 = system: IGROV-1
RPMI-8226 = system: RPMI-8226
HL-60 = system: HL-60
OVCAR-3 = system: OVCAR-3
TK-10 = system: TK-10
UO-31 = system: UO-31
MCF7 = system: MCF7
BT-549 = system: BT-549
OVCAR-5 = system: OVCAR-5
SK-MEL-2 = system: SK-MEL-2
DU-145 = system: DU-145
M14 = system: M14
SNB-19 = system: SNB-19
786-0 = system: 786-0
SN12C = system: SN12C
NCI/ADR-RES = system: NCI/ADR-RES
Hs-578T = system: Hs-578T
SF-295 = system: SF-295
SF-539 = system: SF-539
U-251 = system: U-251
EKVX = system: EKVX
UACC-257 = system: UACC-257
SK-MEL-5 = system: SK-MEL-5
A498 = system: A498
CCRF-CEM = system: CCRF-CEM
SK-MEL-28 = system: SK-MEL-28
SNB-75 = system: SNB-75
Malme-3M = system: Malme-3M
SR = system: SR

For `C=CCNC(=S)N/C=C(/C(C)=O)C(=O)Nc1ccccc1C`, the GI50 (A549) was > 100 µM (inactive), the GI50 (KM12) was > 100 µM (inactive) and the GI50 (NCI-H23) was > 100 µM (inactive). The GI50 (K562) was > 100 µM (inactive), the GI50 (NCI-H226) was > 100 µM (inactive) and the GI50 (NCI-H460) was > 100 µM (inactive). The GI50 (MDA-MB-435) was > 100 µM (inactive), the GI50 (LOX IMVI) was > 100 µM (inactive) and the GI50 (HCT-15) was > 100 µM. For the same molecule, the GI50 (T47D) was > 100 µM (inactive), the GI50 (NCI-H522) was > 100 µM (inactive) and the GI50 (PC-3) was > 100 µM (inactive). The GI50 (CAKI-1) was > 100 µM (inactive), the GI50 (MDA-N) was > 100 µM (inactive) and the GI50 (SK-OV-3) was > 100 µM (inactive). For the same molecule, the GI50 (RXF 393) was > 100 µM (inactive), the GI50 (HOP-62) was > 100 µM (inactive) and the GI50 (MOLT-4) was > 100 µM (inactive). The GI50 (UACC-62) was > 100 µM (inactive), the GI50 (OVCAR-4) was > 100 µM (inactive) and the GI50 (HT-29) was > 100 µM (inactive). For the same molecule, the GI50 (ACHN) was > 100 µM (inactive), the GI50 (HCT-116) was > 100 µM (inactive) and the GI50 (COLO 205) was > 100 µM (inactive). For the same molecule, the GI50 (OVCAR-8) was > 100 µM (inactive), the GI50 (SW-620) was > 100 µM (inactive) and the GI50 (SF-268) was > 100 µM (inactive). The GI50 (HCC 2998) was > 100 µM (inactive), the GI50 (MDA-MB-231) was > 100 µM (inactive) and the GI50 (IGROV-1) was > 100 µM (inactive). The GI50 (RPMI-8226) was 4.76 µM (inactive), the GI50 (HL-60) was > 100 µM (inactive) and the GI50 (OVCAR-3) was > 100 µM (inactive). For the same molecule, the GI50 (TK-10) was > 100 µM (inactive), the GI50 (UO-31) was > 100 µM (inactive) and the GI50 (MCF7) was > 100 µM (inactive). For the same molecule, the GI50 (BT-549) was > 100 µM (inactive), the GI50 (OVCAR-5) was > 100 µM (inactive) and the GI50 (SK-MEL-2) was > 100 µM (inactive). The GI50 (DU-145) was > 100 µM (inactive), the GI50 (M14) was > 100 µM (inactive) and the GI50 (SNB-19) was > 100 µM (inactive). For the same molecule, the GI50 (786-0) was > 100 µM (inactive), the GI50 (SN12C) was > 100 µM (inactive) and the GI50 (NCI/ADR-RES) was > 100 µM (inactive). For the same molecule, the GI50 (Hs-578T) was > 100 µM (inactive), the GI50 (SF-295) was > 100 µM (inactive) and the GI50 (SF-539) was > 100 µM (inactive). The GI50 (U-251) was > 100 µM (inactive), the GI50 (EKVX) was > 100 µM (inactive) and the GI50 (UACC-257) was > 100 µM (inactive). The GI50 (SK-MEL-5) was > 100 µM (inactive).
For `CCSCCCC(=O)O`, the GI50 (A549) was > 100 µM (inactive), the GI50 (KM12) was > 100 µM (inactive) and the GI50 (NCI-H23) was > 100 µM (inactive). For the same molecule, the GI50 (K562) was > 100 µM (inactive), the GI50 (NCI-H226) was > 100 µM (inactive) and the GI50 (MDA-MB-435) was > 100 µM (inactive). The GI50 (LOX IMVI) was > 100 µM (inactive), the GI50 (A498) was > 100 µM (inactive) and the GI50 (HCT-15) was > 100 µM. The GI50 (T47D) was > 100 µM (inactive), the GI50 (NCI-H522) was > 100 µM (inactive) and the GI50 (PC-3) was > 100 µM (inactive). For the same molecule, the GI50 (CAKI-1) was > 100 µM (inactive), the GI50 (MDA-N) was > 100 µM (inactive) and the GI50 (SK-OV-3) was > 100 µM (inactive). For the same molecule, the GI50 (RXF 393) was > 100 µM (inactive), the GI50 (HOP-62) was > 100 µM (inactive) and the GI50 (MOLT-4) was > 100 µM (inactive). The GI50 (UACC-62) was > 100 µM (inactive), the GI50 (OVCAR-4) was > 100 µM (inactive) and the GI50 (HT-29) was > 100 µM (inactive). For the same molecule, the GI50 (ACHN) was > 100 µM (inactive), the GI50 (HCT-116) was > 100 µM (inactive) and the GI50 (COLO 205) was > 100 µM (inactive). The GI50 (OVCAR-8) was > 100 µM (inactive), the GI50 (SW-620) was > 100 µM (inactive) and the GI50 (SF-268) was > 100 µM (inactive). The GI50 (HCC 2998) was > 100 µM (inactive), the GI50 (MDA-MB-231) was > 100 µM (inactive) and the GI50 (IGROV-1) was > 100 µM (inactive). For the same molecule, the GI50 (RPMI-8226) was > 100 µM (inactive), the GI50 (HL-60) was > 100 µM (inactive) and the GI50 (OVCAR-3) was > 100 µM (inactive). The GI50 (TK-10) was > 100 µM (inactive), the GI50 (UO-31) was > 100 µM (inactive) and the GI50 (MCF7) was > 100 µM (inactive). The GI50 (CCRF-CEM) was > 100 µM (inactive), the GI50 (BT-549) was > 100 µM (inactive) and the GI50 (OVCAR-5) was > 100 µM (inactive). The GI50 (SK-MEL-28) was > 100 µM (inactive), the GI50 (SNB-75) was > 100 µM (inactive) and the GI50 (SK-MEL-2) was > 100 µM (inactive). The GI50 (DU-145) was > 100 µM (inactive), the GI50 (M14) was > 100 µM (inactive) and the GI50 (SNB-19) was > 100 µM (inactive). For the same molecule, the GI50 (786-0) was > 100 µM (inactive), the GI50 (SN12C) was > 100 µM (inactive) and the GI50 (NCI/ADR-RES) was > 100 µM (inactive). The GI50 (Malme-3M) was > 100 µM (inactive), the GI50 (Hs-578T) was > 100 µM (inactive) and the GI50 (SF-295) was > 100 µM (inactive). For the same molecule, the GI50 (U-251) was > 100 µM (inactive), the GI50 (SR) was > 100 µM (inactive) and the GI50 (EKVX) was > 100 µM (inactive). The GI50 (UACC-257) was > 100 µM (inactive) and the GI50 (SK-MEL-5) was > 100 µM (inactive).

Reference: ChEMBL document CHEMBL1201862, “PubChem BioAssay data set” (2004)
